In patent US20040028675A1, “Compositions for the treatment of lupus” (Zarlink Semiconductor AB, priority 2001, published 2004):

Experiments:
[1] = system: patients with Lupus (Systemic Lupus Erythematosus); details: osteoarthritis or Lupus caused joint inflammation; cited from earlier work
Kv1.3 channel [2] = biological target: T1, Kv1.3 channel (Homo sapiens, UniProt P22001); experiment: Screening tests of ion channel function; details: screening tests by experts in ion channel function
Kv1.3 channel [3] = biological target: T1, Kv1.3 channel; details: independently demonstrated; cited from earlier work
[4] = system: patients with Lupus (Systemic Lupus Erythematosus); experiment: Treatment of patients with Lupus (SLE) with the inventive composition

T1 sequence (P22001 whole entry): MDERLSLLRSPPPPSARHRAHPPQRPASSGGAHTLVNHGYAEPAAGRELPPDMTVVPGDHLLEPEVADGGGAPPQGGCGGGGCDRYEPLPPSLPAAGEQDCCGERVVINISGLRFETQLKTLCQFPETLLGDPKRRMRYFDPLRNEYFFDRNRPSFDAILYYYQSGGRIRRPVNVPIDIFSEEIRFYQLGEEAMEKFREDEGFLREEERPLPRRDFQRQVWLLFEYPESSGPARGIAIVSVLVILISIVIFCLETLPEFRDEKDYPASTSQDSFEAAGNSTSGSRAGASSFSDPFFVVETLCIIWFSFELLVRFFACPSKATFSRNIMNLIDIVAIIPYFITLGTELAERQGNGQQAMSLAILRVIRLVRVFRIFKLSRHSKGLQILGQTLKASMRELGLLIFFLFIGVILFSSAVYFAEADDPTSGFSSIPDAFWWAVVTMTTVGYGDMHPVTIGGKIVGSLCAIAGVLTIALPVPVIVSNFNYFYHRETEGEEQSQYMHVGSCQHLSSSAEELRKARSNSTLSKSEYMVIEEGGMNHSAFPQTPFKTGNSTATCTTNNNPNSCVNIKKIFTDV

Bromelain
ameliorating joint pain, Bromelain alone [1]: not effective

O=c1c(O)c(-c2ccc(O)c(O)c2)oc2cc(O)cc(O)c12 [Quercetin]
effectiveness in tests of ion channel function (Kv1.3 channel [2]): very effective
modulating the conduction by the Kv1.3 potassium channel (Kv1.3 channel [3]): very effective

O=c1c(O)c(-c2cc(O)c(O)c(O)c2)oc2cc(O)cc(O)c12 [Myricetin]
effectiveness of the bioflavonoid in the inventive formula (in place of Quercetin) ([4]; human, in vivo): somewhat effective

O=c1cc(-c2ccc(O)c(O)c2)oc2cc(O)cc(O)c12 [Luteolin]
effectiveness of the bioflavonoid in the inventive formula (in place of Quercetin) ([4]; limited tests): somewhat more effective than Quercetin
effectiveness in tests of ion channel function (Kv1.3 channel [2]): even more effective than Quercetin
